Reference: patent publication US20260027380A1, “TECHNIQUES FOR MAGNETIC NANOCLUSTER-BASED COMBINATION THERAPY” (William Marsh Rice University, priority 2022, published 2026)

Experiments:
[1] = system: MC-38 cells; test: Detection of intracellular free radicals (H2DCFDA); type: cell-based, murine; conditions: without AMF
Method: Additionally, intracellular free radical generation by IONC-AAPH was measured using 2′,7′-dichlorodihydrofluorescein diacetate (H2DCFDA) as an intracellular free radical probe. H2DCFDA is a non-fluorescent cell-permeant compound. Upon oxidation by free radicals, H2DCFDA is converted to a highly fluorescent 2′,7′-dichlorofluorescein (DCF). MC-38 cells (murine colon adenocarcinoma cell line) were pre-incubated with IONC or IONC-AAPH (at 300 μg Fe/mL concentration) for 1 h to allow internalization into cells. The intracellular IONC and IONC-AAPH were 0.79±0.16 and 0.87±0.12 pg Fe/cell, respectively, as quantified by a ferrozine-based colorimetric assay. After internalization, the cells were exposed to AMF for 1 h. The intracellular free radicals in the MC-38 cells were then examined with H2DCFDA through fluorescence microscopy and flow cytometry. FIG. 4 illustrates a flow cytometry analysis of intracellular free radicals in MC-38 cells detected via fluorescence from DCF. Further, FIG. 5 is a graph illustrating the quantification of intracellular free radicals (e.g., quantification of the mean fluorescence of DCF). The data in FIG. 5 represents the mean DCF fluorescence of each group +the standard error of mean (s.e.m.).
Detection of intracellular free radicals: The intracellular generation of free radicals was determined using H2DCFDA probe. […]

[2] = system: MC-38 cells; test: Quantification of intracellular GSH (GSH-Glo); type: cell-based, murine; conditions: without AMF, 37° C. for 4 h
Method: Glutathione (GSH) is an antioxidant that plays an important role in the scavenging of intracellular free radicals and protecting the cells against oxidative damage. GSH depletion will disrupt the redox homeostasis and lead to oxidative stress and eventual cell death. MC-38 cells were treated with 300 μg Fe/mL of IONC or IONC-AAPH and subjected to AMF for 2 hours. The intracellular GSH was quantified after 2 hours of incubation at 37° C. Intracellular GSH was also measured for cells treated with AAPH, IONC, or IONC-AAPH, respectively, without AMF and incubated at 37° C. for 4 h. The intracellular GSH was quantified using a luminescence-based GSH-Glo glutathione assay. FIG. 11 illustrates a GSH depletion measurement of the MC-38 cells 2 hours after treatment. […] In contrast, treating cells with IONC-AAPH under AMF (i.e., with both heating and free radicals) decreased the GSH/GSSG ratio to 55% of that in the control cells.
Quantification of intracellular GSH: MC-38 cells were seeded in 4-compartment cell culture dishes at a density of 1×10^5 cells per compartment and cultured overnight. Then the cells were treated with 300 μg Fe/mL of IONC-AAPH or IONC at 37° C. or under AMF for 2 h. Two hours after the treatment, the culture medium was removed and the intracellular GSH was quantified using a luminescence-based GSH-Glo Glutathione Assay according to the manufacturer's instructions.

[3] = system: bone marrow-derived dendritic cells (BMDCs); test: Dendritic cell maturation, coculture with treated MC-38 cells; type: cell-based, C57BL/6N mice; conditions: without AMF
Method: Dendritic cells (DCs) are a key type of antigen-presenting cells that play critical roles in initiating and regulating antitumor immune response. To determine if the immunogenic cell death induced by magnetotherapy can activate dendritic cells, bone marrow-derived dendritic cells (BMDCs) were cocultured with IONC-AAPH-treated MC-38 cells, together with the medium containing DAMPs, in a transwell system for 24 h. The maturation of dendritic cells was estimated as the percentage of CD80+CD86+ cells in CD11c+ cells. […] The percentage of mature DCs in IONC and IONC-AAPH groups was 2.1-fold of the blank.
Determination of Dendritic Cell Maturation: The bone marrow-derived dendritic cells (BMDCs) were prepared from the bone marrow of 8-week old C57BL/6N mice according to an established protocol. To determine the stimulatory effect on BMDCs, IONC-AAPH-treated MC-38 cells (together with the medium containing DAMPs) were cocultured with BMDCs for 24 h in a transwell system (pore size=3 μm). BMDCs only (without coculture) were included as the blank groups. The BMDCs were collected, blocked with CD16/CD32 antibody, and stained with PECD11c, FITC-CD80, and APC-CD86. The data were acquired on MA900 Multi-Application Cell Sorter (Sony) and analyzed using FlowJo software (Tree Star).

With CC(C)(N=NC(C)(C)C(=N)N)C(=N)N.Cl.Cl [AAPH, 2,2′-azobis(2-amidinopropane) dihydrochloride] the “intracellular free radicals (DCF fluorescence)” value [1] was “negligible fluorescence”, the “change in GSH to GSSG ratio” value [2] was “did not affect the GSH to GSSG ratio” and the “effect on DC maturation” value [3] was “did not show a noticeable effect”.
